In patent US8952177B2 (Janssen Pharmaceutica NV, priority 2013, dated 2015):
Structures can show the parent of a compound that is named as a salt.

Tested on: leukotriene pathway in human whole blood (LTB4)
Test: Human whole blood assay (LTB4 after calcium ionophore A23187 stimulation)
Format: cell-based
Conditions: human whole blood diluted 1:1 in RPMI, 15 min pre-incubation, A23187 7 μg/mL for 30 min at 37° Celsius
Experimental: The ability of the compounds of the present invention to treat a FLAP-mediated disease and/or disorder, or associated symptoms or complications thereof, was determined using the following procedures. Binding assay data represent the average value obtained from two different assay plates, with samples run in duplicate on each plate. Human whole blood assay data represent a single replicate on an assay plate using whole blood from at least one healthy donor.
An in vitro cellular assay was performed using human whole blood collected in heparin-containing tubes, which was used to test the ability of compounds to modulate the leukotriene pathway in human whole blood. The blood was diluted 1:1 in RPMI medium, pre-incubated for 15 min at 37° Celsius with test compounds at various concentrations, and then stimulated with calcium ionophore, A23187 (7 μg/mL), for 30 min at 37° Celsius. The samples were then centrifuged and plasma was removed. The plasma was diluted in assay buffer and LTB4 levels were measured using a commercial kit (Enzo Life Sciences). The concentration of each compound that was required for half-maximal inhibition (modulation) of […] (IC50) was calculated by a 4-parameter equation using the program GraphPad Prism (GraphPad software). For analysis, data are imported into 3DX and aggregated as the average of duplicates of the calculated ratios in order to calculate Ki and IC50 values. Numbers in parentheses are the number of runs for the assay.

| SMILES | IC50 (Homo sapiens) | also measured |
| --- | --- | --- |
| Cc1ccc(COc2ccc3nc(C4CCCC[C@@H]4C(=O)O)n(Cc4ccc(Br)cc4)c3c2)nc1 (mixture of isomers) [Example 1, racemic cis-2-{1-(4-Bromobenzyl)-6-[(5-methylpyridin-2-yl)methoxy]-1H-benzimidazol-2-yl}cyclohexanecarboxylic acid] | – | IC50: 400 nM |
| Cc1ccc(COc2ccc3nc(C4CCCC[C@H]4C(=O)O)n(Cc4ccc(Br)c(F)c4)c3c2)nc1 (mixture of isomers) [Example 4, racemic cis-2-{1-(4-Bromo-3-fluorobenzyl)-6-[(5-methylpyridin-2-yl)methoxy]-1H-benzimidazol-2-yl}cyclohexanecarboxylic acid as the TFA salt] | 1020 nM | – |
| Cc1ccc(COc2ccc3nc(C4CCCC[C@@H]4C(=O)O)n(Cc4ccc(Br)cc4)c3c2)nc1 (mixture of isomers) [Example 5, racemic trans-2-{1-(4-Bromobenzyl)-6-[(5-methylpyridin-2-yl)methoxy]-1H-benzimidazol-2-yl}cyclohexanecarboxylic acid as the TFA salt] | – | IC50 (TFA salt): 1390 nM |
| Cc1ccc(COc2ccc3nc(C4CCCC[C@H]4C(=O)O)n(Cc4ccc(Br)cc4F)c3c2)nc1 (mixture of isomers) [Example 10, racemic cis-2-{1-(4-Bromo-2-fluorobenzyl)-6-[(5-methylpyridin-2-yl)methoxy]-1H-benzimidazol-2-yl}cyclohexanecarboxylic acid] | 380 nM | – |
| Cc1ccc(COc2ccc3nc(C4CCCC[C@@H]4C(=O)O)n(Cc4ccc(Br)cc4F)c3c2)nc1 (mixture of isomers) [Example 13, racemic trans-2-{1-(4-Bromo-2-fluorobenzyl)-6-[(5-methylpyridin-2-yl)methoxy]-1H-benzimidazol-2-yl}cyclohexanecarboxylic acid] | 1190 nM | – |
| Cc1ccc(COc2ccc3nc([C@H]4CCCC[C@H]4C(=O)O)n(Cc4ccc(OC(F)(F)F)c(F)c4)c3c2)nc1 (racemic) [Example 20, racemic cis-2-{1-[3-Fluoro-4-(trifluoromethoxy)benzyl]-6-[(5-methylpyridin-2-yl)methoxy]-1H-benzimidazol-2-yl}cyclohexanecarboxylic acid] | 750 nM | – |
| Cc1ccc(COc2ccc3nc([C@H]4CCCC[C@@H]4C(=O)O)n(Cc4ccc(OC(F)(F)F)cc4F)c3c2)nc1 (racemic) [Example 21, racemic trans-2-{1-[2-Fluoro-4-(trifluoromethoxy)benzyl]-6-[(5-methylpyridin-2-yl)methoxy]-1H-benzimidazol-2-yl}cyclohexanecarboxylic acid] | 740 nM | – |
| Cc1ccc(COc2ccc3nc([C@@H]4[C@H](C(=O)O)C4(C)C)n(Cc4ccc(OC(F)(F)F)cc4)c3c2)nc1 (racemic) [Example 25] | 3120 nM | – |
| Cc1ccc(COc2ccc3nc([C@H]4CCCC[C@H]4C(=O)O)n(Cc4ccc(OC(F)(F)F)cc4F)c3c2)nc1 (racemic) [Example 26, racemic cis-2-{1-[2-Fluoro-4-(trifluoromethoxy)benzyl]-6-[(5-methylpyridin-2-yl)methoxy]-1H-benzimidazol-2-yl}cyclohexanecarboxylic acid] | 560 nM | – |
| Cc1ccc(COc2ccc3nc([C@@H]4CCCC[C@H]4C(=O)O)n(Cc4ccc(OC(F)(F)F)cc4)c3c2)nc1 (racemic) [Example 31, racemic trans-2-{6-[(5-Methylpyridin-2-yl)methoxy]-1-[4-(trifluoromethoxy)benzyl]-1H-benzimidazol-2-yl}cyclohexanecarboxylic acid] | 1970 nM | – |
| Cc1ccc(COc2ccc3nc([C@H]4CCCC[C@H]4C(=O)O)n(Cc4ccc(OC(F)(F)F)c(Cl)c4)c3c2)nc1 (racemic) [Example 32, racemic cis-2-{1-[3-Chloro-4-(trifluoromethoxy)benzyl]-6-[(5-methylpyridin-2-yl)methoxy]-1H-benzimidazol-2-yl}cyclohexanecarboxylic acid] | 210 nM | – |
